Values after ≈ are worked out from the molar mass of the structure shown.
Assay: Metabolic stability in human liver microsomes assessed as intrinsic clearance
Type: ADME, Microsome
Conditions: liver microsomes, read-out: CLH
In the case of `CC(C)(CN)CNC(=O)O[C@@H]1CCC[C@]2(C1)OOC1(O2)C2CC3CC(C2)CC1C3` (some centres undefined), the microsomal CLint is reported as 14.3 µL/min/mg.
Work on `CC(C)(CN)CNC(=O)O[C@H]1CCC[C@@]2(C1)OOC1(O2)C2CC3CC(C2)CC1C3` (some centres undefined) yielded a microsomal CLint of 21.4 µL/min/mg.
Compound `O=C(O[C@@H]1CCC[C@]2(C1)OOC1(O2)C2CC3CC(C2)CC1C3)N1CCNCC1` (some centres undefined) has a microsomal CLint of 39.4 µL/min/mg.

Same assay, conditions: microsomes
`N[C@@H]1CCCN(C(=O)O[C@H]2CCC[C@@]3(C2)OOC2(O3)C3CC4CC(C3)CC2C4)C1` (some centres undefined) gave a microsomal intrinsic clearance of 52.7 µL/min/mg.
Work on `NCCC1CCN(C(=O)O[C@H]2CCC[C@@]3(C2)OOC2(O3)C3CC4CC(C3)CC2C4)CC1` (some centres undefined) yielded a microsomal intrinsic clearance of 92.7 µL/min/mg.
Compound `N[C@H]1CC[C@H](NC(=O)O[C@H]2CCC[C@@]3(C2)OOC2(O3)C3CC4CC(C3)CC2C4)CC1` (some centres undefined) has a microsomal intrinsic clearance of 28.2 µL/min/mg.
In the case of `NCC1CCN(C(=O)O[C@H]2CCC[C@@]3(C2)OOC2(O3)C3CC4CC(C3)CC2C4)CC1` (some centres undefined), the microsomal intrinsic clearance is reported as 69.6 µL/min/mg.
Work on `CCCC1(O)CN(C(=O)O[C@H]2CCC[C@@]3(C2)OOC2(O3)C3CC4CC(C3)CC2C4)C1` (some centres undefined) yielded a microsomal intrinsic clearance of 683 µL/min/mg.
Work on `O=C(O[C@H]1CCC[C@@]2(C1)OOC1(O2)C2CC3CC(C2)CC1C3)N1CCNCC1` (some centres undefined) yielded a microsomal intrinsic clearance of 120 µL/min/mg.
Compound `C[S+]([O-])C1CN(C(=O)O[C@H]2CCC[C@@]3(C2)OOC2(O3)C3CC4CC(C3)CC2C4)C1` (some centres undefined) has a microsomal intrinsic clearance of 750 µL/min/mg.
`C[S+]([O-])C1CN(C(=O)O[C@@H]2CCC[C@]3(C2)OOC2(O3)C3CC4CC(C3)CC2C4)C1` (some centres undefined) showed a microsomal intrinsic clearance of 516 µL/min/mg.
Work on `CCC1(O)CN(C(=O)O[C@H]2CCC[C@@]3(C2)OOC2(O3)C3CC4CC(C3)CC2C4)C1` (some centres undefined) yielded a microsomal intrinsic clearance of 638 µL/min/mg.
With `CC(C)C1(O)CN(C(=O)O[C@@H]2CCC[C@]3(C2)OOC2(O3)C3CC4CC(C3)CC2C4)C1` (some centres undefined) the microsomal intrinsic clearance was 392 µL/min/mg.
Work on `CS(=O)(=O)C1CN(C(=O)O[C@H]2CCC[C@@]3(C2)OOC2(O3)C3CC4CC(C3)CC2C4)C1` (some centres undefined) yielded a microsomal intrinsic clearance of 851 µL/min/mg.
`CS(=O)(=O)C1CN(C(=O)O[C@@H]2CCC[C@]3(C2)OOC2(O3)C3CC4CC(C3)CC2C4)C1` (some centres undefined) gave a microsomal intrinsic clearance of 526 µL/min/mg.
Work on `CS(=N)(=O)C1CN(C(=O)O[C@@H]2CCC[C@]3(C2)OOC2(O3)C3CC4CC(C3)CC2C4)C1` (some centres undefined) yielded a microsomal intrinsic clearance of 234 µL/min/mg.
`CS(=N)(=O)CCNC(=O)O[C@@H]1CCC[C@]2(C1)OOC1(O2)C2CC3CC(C2)CC1C3` (some centres undefined) gave a microsomal intrinsic clearance of 243 µL/min/mg.
For `CCCC1(O)CN(C(=O)O[C@@H]2CCC[C@]3(C2)OOC2(O3)C3CC4CC(C3)CC2C4)C1` (some centres undefined), the microsomal intrinsic clearance was 579 µL/min/mg.
With `O=C(O[C@H]1CCC[C@@]2(C1)OOC1(O2)C2CC3CC(C2)CC1C3)N1CC(O)(C(F)(F)F)C1` (some centres undefined) the microsomal intrinsic clearance was 211 µL/min/mg.
Compound `CC(C)C1(O)CN(C(=O)O[C@H]2CCC[C@@]3(C2)OOC2(O3)C3CC4CC(C3)CC2C4)C1` (some centres undefined) has a microsomal intrinsic clearance of 657 µL/min/mg.
With `CS(=N)(=O)CCNC(=O)O[C@H]1CCC[C@@]2(C1)OOC1(O2)C2CC3CC(C2)CC1C3` (some centres undefined) the microsomal intrinsic clearance was 319 µL/min/mg.
For `N[C@@H]1CCN(C(=O)O[C@H]2CCC[C@@]3(C2)OOC2(O3)C3CC4CC(C3)CC2C4)C1` (some centres undefined), the microsomal intrinsic clearance was 58.7 µL/min/mg.
Compound `N=S(=O)(CCNC(=O)O[C@@H]1CCC[C@]2(C1)OOC1(O2)C2CC3CC(C2)CC1C3)C1CC1` (some centres undefined) has a microsomal intrinsic clearance of 435 µL/min/mg.

Assay: Solubility of the compound in PBS buffer at pH 7.4
Type: physicochemical
Conditions: not given
`N[C@@H]1CCCN(C(=O)O[C@H]2CCC[C@@]3(C2)OOC2(O3)C3CC4CC(C3)CC2C4)C1` (some centres undefined) gave a solubility kinetic of 129 µM (≈ 52.4 µg/mL).
`NCCC1CCN(C(=O)O[C@H]2CCC[C@@]3(C2)OOC2(O3)C3CC4CC(C3)CC2C4)CC1` (some centres undefined) gave a solubility kinetic of 117 µM (≈ 50.8 µg/mL).
`NCC1CCN(C(=O)O[C@H]2CCC[C@@]3(C2)OOC2(O3)C3CC4CC(C3)CC2C4)CC1` (some centres undefined) showed a solubility kinetic of 112 µM (≈ 47.1 µg/mL).
`CCCC1(O)CN(C(=O)O[C@H]2CCC[C@@]3(C2)OOC2(O3)C3CC4CC(C3)CC2C4)C1` (some centres undefined) gave a solubility kinetic of 18.2 µM (≈ 7.67 µg/mL).
With `O=C(O[C@H]1CCC[C@@]2(C1)OOC1(O2)C2CC3CC(C2)CC1C3)N1CCNCC1` (some centres undefined) the solubility kinetic was 167 µM (≈ 65.5 µg/mL).
Compound `C[S+]([O-])C1CN(C(=O)O[C@H]2CCC[C@@]3(C2)OOC2(O3)C3CC4CC(C3)CC2C4)C1` (some centres undefined) has a solubility kinetic of 184 µM (≈ 78.3 µg/mL).
In the case of `C[S+]([O-])C1CN(C(=O)O[C@@H]2CCC[C@]3(C2)OOC2(O3)C3CC4CC(C3)CC2C4)C1` (some centres undefined), the solubility kinetic is reported as 138 µM (≈ 58.7 µg/mL).
With `CCC1(O)CN(C(=O)O[C@H]2CCC[C@@]3(C2)OOC2(O3)C3CC4CC(C3)CC2C4)C1` (some centres undefined) the solubility kinetic was 41.5 µM (≈ 16.9 µg/mL).
Work on `CC(C)C1(O)CN(C(=O)O[C@@H]2CCC[C@]3(C2)OOC2(O3)C3CC4CC(C3)CC2C4)C1` (some centres undefined) yielded a solubility kinetic of 15.9 µM (≈ 6.7 µg/mL).
With `CS(=O)(=O)C1CN(C(=O)O[C@H]2CCC[C@@]3(C2)OOC2(O3)C3CC4CC(C3)CC2C4)C1` (some centres undefined) the solubility kinetic was 81.1 µM (≈ 35.8 µg/mL).
`CS(=O)(=O)C1CN(C(=O)O[C@@H]2CCC[C@]3(C2)OOC2(O3)C3CC4CC(C3)CC2C4)C1` (some centres undefined) showed a solubility kinetic of 66.7 µM (≈ 29.5 µg/mL).
With `CC(C)(CN)CNC(=O)O[C@H]1CCC[C@@]2(C1)OOC1(O2)C2CC3CC(C2)CC1C3` (some centres undefined) the solubility kinetic was 164 µM (≈ 67 µg/mL).
For `CS(=N)(=O)C1CN(C(=O)O[C@@H]2CCC[C@]3(C2)OOC2(O3)C3CC4CC(C3)CC2C4)C1` (some centres undefined), the solubility kinetic was 268 µM (≈ 118 µg/mL).
`CS(=N)(=O)CCNC(=O)O[C@@H]1CCC[C@]2(C1)OOC1(O2)C2CC3CC(C2)CC1C3` (some centres undefined) gave a solubility kinetic of 128 µM (≈ 54.9 µg/mL).
With `O=C(O[C@@H]1CCC[C@]2(C1)OOC1(O2)C2CC3CC(C2)CC1C3)N1CCNCC1` (some centres undefined) the solubility kinetic was 144 µM (≈ 56.5 µg/mL).
Compound `CCCC1(O)CN(C(=O)O[C@@H]2CCC[C@]3(C2)OOC2(O3)C3CC4CC(C3)CC2C4)C1` (some centres undefined) has a solubility kinetic of 16.1 µM (≈ 6.79 µg/mL).
For `O=C(O[C@H]1CCC[C@@]2(C1)OOC1(O2)C2CC3CC(C2)CC1C3)N1CC(O)(C(F)(F)F)C1` (some centres undefined), the solubility kinetic was 10.8 µM (≈ 4.83 µg/mL).
With `CC(C)C1(O)CN(C(=O)O[C@H]2CCC[C@@]3(C2)OOC2(O3)C3CC4CC(C3)CC2C4)C1` (some centres undefined) the solubility kinetic was 15.1 µM (≈ 6.37 µg/mL).
For `CN1CCN(C(=O)O[C@H]2CCC[C@@]3(C2)OOC2(O3)C3CC4CC(C3)CC2C4)CC1` (some centres undefined), the solubility kinetic was 109 µM (≈ 44.3 µg/mL).
For `CS(=N)(=O)CCNC(=O)O[C@H]1CCC[C@@]2(C1)OOC1(O2)C2CC3CC(C2)CC1C3` (some centres undefined), the solubility kinetic was 129 µM (≈ 55.3 µg/mL).
In the case of `N=S(=O)(CCNC(=O)O[C@@H]1CCC[C@]2(C1)OOC1(O2)C2CC3CC(C2)CC1C3)C1CC1` (some centres undefined), the solubility kinetic is reported as 79.3 µM (≈ 36 µg/mL).

Reference: ChEMBL document CHEMBL6071188, “Synthesis and In Vivo Profiling of Desymmetrized Antimalarial Trioxolanes with Diverse Carbamate Side Chains” (ACS Med Chem Lett, 2024)
